Reference: US3932512A, “Antiviral 1,2,3,4-tetrahydro-1,-alkano naphthalenamine derivatives” (priority 1972, dated 1976)
Like-named read-outs stand apart in the source and are kept apart here.

Assays:
Influenza A2 /Aichi/3/68 = assay: in vitro anti-myxovirus activity, influenza A2 /Aichi/3/68, G-2 cells (% inhibition of hemadsorption); format: cell-based, Influenza A2 /Aichi/3/68 (human); details: for inhibition at 100 µg/mL: 100 μg/ml; for inhibition at 40 µg/mL: 40 μg/ml; for inhibition at 30 µg/mL: 30 μg/ml; for inhibition at 50 µg/mL: 50 μg/ml; for inhibition at 60 µg/mL: 60 μg/ml; for inhibition at 70 µg/mL: 70 μg/ml; for inhibition at 80 µg/mL: 80 μg/ml; for inhibition at 90 µg/mL: 90 μg/ml; for inhibition at 10 µg/mL: 10 μg/ml; for inhibition at 20 µg/mL: 20 μg/ml
[1] = cytotoxicity in G-2 cells; format: cell-based; details: human; for CC50: 50% inhibition of cell growth, read-out: Cytotoxicity CTD50; for MNTC: maximal non-toxic concentration, read-out: Cytotoxicity CTD0
Protocol: In preparing the compounds for testing, they were handled aseptically throughout. The compounds were dissolved in a minimum amount of a suitable solvent and the final dilutions were made up to the required volume in a complete culture medium used in assay and in concentration not exceeding the predetermined maximum non-toxic levels.
The cell culture used in all primary in vitro anti-myxovirus assays was an established cell line of the human conjunctiva (G-2 cells). The cytotoxic studies of each of the compounds were performed prior to testing for antiviral activity to determine level of response of the cells to the potentially toxic action of the compounds.

[2] = toxicity of in vitro active anti-myxovirus compounds in mice; details: mouse, in vivo, ip, I/P
mice = assay: as above; details: for Maximal non-toxic dose LD0, acute / Maximal non-toxic dose LD0, subacute: I/P; for toxicity compared with Amantadine or compound I: words
Influenza (swine) = assay: cells; format: cell-based; details: for inhibition at 30 µg/mL: 30 μg/ml; for inhibition at 80 µg/mL: 80 μg/ml; for inhibition at 100 µg/mL: 100 μg/ml
[3] = Homo sapiens, 100 TCID50, read-out: % Inhibition
[4] = 50% toxic dose LD50, acute, acute
[5] = 50% toxic dose LD50, subacute, subacute

SMILES | inhibition at 100 µg/mL (Influenza A2 /Aichi/3/68; [3]) | CC50 [1] | MNTC [1] | LD50 [2, 4] | LD50 [2, 5] | Maximal non-toxic dose LD0, acute (mice) | Maximal non-toxic dose LD0, subacute (mice) | toxicity compared with Amantadine or compound I (mice) | inhibition at 40 µg/mL (Influenza A2 /Aichi/3/68; 100 TCID50) | inhibition at 30 µg/mL (Influenza A2 /Aichi/3/68; Homo sapiens, 100 TCID50) | inhibition at 50 µg/mL (Influenza A2 /Aichi/3/68; Homo sapiens, 100 TCID50) | inhibition at 60 µg/mL (Influenza A2 /Aichi/3/68; Homo sapiens, 100 TCID50) | inhibition at 70 µg/mL (Influenza A2 /Aichi/3/68; Homo sapiens, 100 TCID50) | inhibition at 80 µg/mL (Influenza A2 /Aichi/3/68; Homo sapiens, 100 TCID50) | inhibition at 90 µg/mL (Influenza A2 /Aichi/3/68; Homo sapiens, 100 TCID50) | inhibition at 30 µg/mL (Influenza (swine)) | inhibition at 40 µg/mL (Influenza (swine); 40 μg/ml) | inhibition at 50 µg/mL (Influenza (swine); 50 μg/ml) | inhibition at 60 µg/mL (Influenza (swine); 60 μg/ml) | inhibition at 80 µg/mL (Influenza (swine)) | further results
CN(C)C[C@H]1[C@H](N)[C@H]2C[C@@H]1c1ccccc12 (relative stereo) [Compound III, 1,2,3,4-tetrahydro-1,4-methanonaphthalen-exo-3-dimethylaminomethyl-endo-2-amine] | 90% | > 100 µg/mL | > 100 µg/mL | 750 mg/kg | 500 to 750 mg/kg | 500 mg/kg | 250 mg/kg | far less toxic than either the known antiviral agent Amantadine or compound I |  |  |  |  |  |  |  |  |  |  |  |  | inhibition at 33.3 µg/mL (Influenza A2 /Aichi/3/68; Homo sapiens, 33.3 μg/ml, 100 TCID50): 3%; inhibition at 66.7 µg/mL (Influenza A2 /Aichi/3/68; Homo sapiens, 66.7 μg/ml, 100 TCID50): 87%
NC12CC3CC(CC(C3)C1)C2 [Amantadine, reference compound] |  | > 100 µg/mL | > 100 µg/mL |  |  | 175 mg/kg | 150 mg/kg |  | 0% | 0% | 0% | 0% | 33% | 27% | 67% | 0% | 10% | 67% | 83% | 100% | inhibition at 40 µg/mL (Influenza A2 /Aichi/3/68; 56.2 TCID50): 0%; inhibition at 30 µg/mL (Influenza A2 /Aichi/3/68; Homo sapiens, 56.2 TCID50): 0%; inhibition at 50 µg/mL (Influenza A2 /Aichi/3/68; Homo sapiens, 56.2 TCID50): 0%; inhibition at 60 µg/mL (Influenza A2 /Aichi/3/68; Homo sapiens, 56.2 TCID50): 53%; inhibition at 70 µg/mL (Influenza A2 /Aichi/3/68; Homo sapiens, 56.2 TCID50): 83%; inhibition at 80 µg/mL (Influenza A2 /Aichi/3/68; Homo sapiens, 56.2 TCID50): 70%; inhibition at 90 µg/mL (Influenza A2 /Aichi/3/68; Homo sapiens, 56.2 TCID50): 97%; inhibition at 100 µg/mL (Influenza A2 /Aichi/3/68; Homo sapiens, 56.2 TCID50): 87%; inhibition at 100 µg/mL (Influenza A2 /Aichi/3/68; Homo sapiens, 100 TCID50): 43%; % Inhibition (Influenza (swine); 40 μg/ml, listed as AMANTADINE HYDROCHLORIDE): 17%; % Inhibition (Influenza (swine); 50 μg/ml, listed as AMANTADINE HYDROCHLORIDE): 80%; % Inhibition (Influenza (swine); 60 μg/ml, listed as AMANTADINE HYDROCHLORIDE): 90%; inhibition at 70 µg/mL (Influenza (swine); 70 μg/ml): 97%; % Inhibition (Influenza (swine); 70 μg/ml, listed as AMANTADINE HYDROCHLORIDE): 93%; inhibition at 90 µg/mL (Influenza (swine); 90 μg/ml): 100%; inhibition at 100 µg/mL (Influenza (swine)): 100%
NC1C2CCC(c3ccccc32)C1N (stereo not drawn) [Compound VII, 1,2,3,4-tetrahydro-1,4-ethanonaphthalen-exo-3-endo-2-diamine] | 83% | > 100 µg/mL | > 100 µg/mL | 775 to 800 mg/kg | 800 mg/kg | 700 mg/kg | 700 mg/kg | far less toxic than either the known antiviral agent Amantadine or compound I | 30% | 20% | 67% | 80% | 57% | 60% | 80% | 90% | 97% | 100% | 100% | 100% | inhibition at 40 µg/mL (Influenza A2 /Aichi/3/68; 31.6 TCID50): 87%; inhibition at 10 µg/mL (Influenza A2 /Aichi/3/68; Homo sapiens, 31.6 TCID50): 0%; inhibition at 10 µg/mL (Influenza A2 /Aichi/3/68; Homo sapiens, 100 TCID50): 0%; inhibition at 20 µg/mL (Influenza A2 /Aichi/3/68; Homo sapiens, 31.6 TCID50): 7%; inhibition at 20 µg/mL (Influenza A2 /Aichi/3/68; Homo sapiens, 100 TCID50): 0%; inhibition at 30 µg/mL (Influenza A2 /Aichi/3/68; Homo sapiens, 31.6 TCID50): 60%; inhibition at 50 µg/mL (Influenza A2 /Aichi/3/68; Homo sapiens, 31.6 TCID50): 95%; inhibition at 60 µg/mL (Influenza A2 /Aichi/3/68; Homo sapiens, 31.6 TCID50): 100%; inhibition at 70 µg/mL (Influenza A2 /Aichi/3/68; Homo sapiens, 31.6 TCID50): 100%; inhibition at 80 µg/mL (Influenza A2 /Aichi/3/68; Homo sapiens, 31.6 TCID50): 100%; inhibition at 90 µg/mL (Influenza A2 /Aichi/3/68; Homo sapiens, 31.6 TCID50): 100%; inhibition at 100 µg/mL (Influenza A2 /Aichi/3/68; Homo sapiens, 31.6 TCID50, read-out: % Inhibition): 100%; inhibition at 10 µg/mL (Influenza (swine); 10 μg/ml): 0%; inhibition at 20 µg/mL (Influenza (swine); 20 μg/ml): 56%; % Inhibition (Influenza (swine); 20 μg/ml, listed as 1,2,3,4-TETRAHYDRO-1,4-[…]-EXO-3-ENDO-2-DIAMINE.2HCl): 70%; inhibition at 100 µg/mL (Influenza (swine)): 100%
